From patent publication US8841343B2, “Composition for repelling mosquitoes” (Bio & Hnt, Inc., priority 2006, dated 2014)
Several values for one entry are separate records, joined by “and”; a condition that tells them apart may be missing. Equal values may be shown once.

Test system: Aedes aegypti
Assay: Examination of repellent activity using skin test (treated human forearm in cage of about 100 mated female mosquitoes)
Assay type: in vivo
Settings: for Effective repellency duration (hour) (mean ± standard deviation): maximum measurement time 12 hours
Source text: Citronellic acid and geranic acid, which are used in the present invention, are commercially available or can directly be synthesized. In this embodiment, products of Aldrich Co. (product names are respectively Citronellic acid and Geranic acid) were purchased and used as citronellic acid and geranic acid. Purities of the above two compounds were examined using a gas chromatograph (GC) and a gas chromatograph-mass spectrometry (GC-MS). The compounds having purity of 99.5% or greater were only used. Respective ingredients of the above compounds were added to isopropyl alcohol of 91% to make test samples consisting of a solution in the concentration of 0.5 to 50%. The samples were used for mosquito repellent efficacy experiments.
The test samples manufactured as above underwent repellent effective experiments with respect to Aedes which is a main mosquito group attacking human.
In this embodiment, Aedes aegypti was used as test mosquitoes. The Aedes aegypti was supplied from Korea Research Institute of Bioscience and Biotechnology and reared indoor from generation to generation.
The larvae of the Aedes aegypti were reared in a plastic container of 22×14×7 cm containing distilled water with small amount of one-to-one mixture of chicken feed and yeast. Fresh mosquito pupae were transferred into a paper cup containing water and then placed in a transparent rearing cage to emerge as adults. Here, the rearing cage was constructed with metal net. Males and females of the freshly emerged mosquitoes were transferred to a rearing cage at one-to-one ratio, and left for two or three days for mating. The female mosquitoes were then used for repellency tests. Eight percent (8%) sugar water was supplied for the adult mosquitoes. The following rearing conditions were maintained: light condition of 16 h:8 h (day:night), temperature of 27±2° C., and relative humidity of 80±10%.
In order to examine effectiveness of the mosquito repellent of the prepared sample solutions, one (1) ml of a sample solution was uniformly applied, using a metal rod, on a forearm of a volunteer human test subject between wrist and elbow. Thereafter, the arm treated with the test solution was inserted in a bioassay cage, constructed with Plexiglass of 50×50×50 cm containing approximately 100 mated female mosquitoes. The number of mosquitoes trying to bite was recorded for three minutes in every thirty minutes for up to 4 hours or in every hour for up to 12 hours. The time required to get the arm bitten by two cumulative mosquitoes was regarded as effective repellency duration. A net window of 40×40 cm was present at each side and top of the Plexiglass bioassay cage to allow air ventilation. A 15×15 cm hole was prepared at the front side of the Plexiglass bioassay cage and a long net sleeve was attached to the hole so that the test arm could be put into the cage for repellency test.
At the beginning of each repellency test, an arm treated with no solvent was placed in the bioassay cage containing mosquitoes, in order to examine blood feeding activity of the mated female test mosquitoes. The repellency tests with the test solutions were carried out only when the arm was bitten by at least two mosquitoes for initial three minutes.
Repellent activity against Aedes was examined in accordance with the aforementioned method using the samples which respectively contain citronellic acid and geranic acid. Also, mosquito repellent activity was measured with solutions which contain DEET and Picadirin, wherein the DEET and Picadirin are commercially available mosquito repellents which are currently recommended by the Center for Disease Control of the United States.
In Table 4 to Table 6, the repellent efficiency was calculated using the following Equation 1.

[1] = 10% (0.25 mg/cm^3), 120 minutes
[2] = 10% (0.25 mg/cm^3), 150 minutes
[3] = 10% (0.25 mg/cm^3), 180 minutes
[4] = 10% (0.25 mg/cm^3), 210 minutes
[5] = 10% (0.25 mg/cm^3), 240 minutes
[6] = concentration 2% (0.05 mg/cm^3), time until arm bitten by two cumulative mosquitoes
[7] = concentration 10% (0.25 mg/cm^3), time until two cumulative bites, maximum measurement time 240 minutes

How did the “Repellent efficiency (%) per time (minutes)” value (2% (0.05 mg/cm^3), 30 minutes) turn out when `CC(C)=CCCC(C)CC(=O)O` (racemic) [Citronellic acid, citronellic acid] was run?
Its value is 100%.

And the “Repellent efficiency (%) per time (minutes)” value (2% (0.05 mg/cm^3), 60 minutes)?
Its value is 84.7%.

And the “Repellent efficiency (%) per time (minutes)” value (2% (0.05 mg/cm^3), 90 minutes)?
The value was 71.3%.

What about the “Repellent efficiency (%) per time (minutes)” value (2% (0.05 mg/cm^3), 120 minutes) of the same compound?
Its value is 56.4%.

And the “Repellent efficiency (%) per time (minutes)” value (2% (0.05 mg/cm^3), 150 minutes)?
Its value is 37.8%.

And the “Repellent efficiency (%) per time (minutes)” value (2% (0.05 mg/cm^3), 180 minutes)?
Its value is 15.2%.

What about the “Repellent efficiency (%) per time (minutes)” value (2% (0.05 mg/cm^3), 210 minutes) of the same compound?
Its value is 7.4%.

What about the “Repellent efficiency (%) per time (minutes)” value (2% (0.05 mg/cm^3), 240 minutes) of the same compound?
The value was 0%.

What about the “Repellent efficiency (%) per time (minutes)” value (10% (0.25 mg/cm^3), 30 minutes) of the same compound?
Its value is 100%.

And the “Repellent efficiency (%) per time (minutes)” value (10% (0.25 mg/cm^3), 60 minutes)?
Its value is 100%.

What about the “Repellent efficiency (%) per time (minutes)” value (10% (0.25 mg/cm^3), 90 minutes) of the same compound?
Its value is 100%.

And the “Repellent efficiency (%) per time (minutes)” value [1]?
The value was 100%.

And the “Repellent efficiency (%) per time (minutes)” value [2]?
The value was 100%.

And the “Repellent efficiency (%) per time (minutes)” value [3]?
Its value is 85.7%.

And the “Repellent efficiency (%) per time (minutes)” value [4]?
The value was 71.4%.

And the “Repellent efficiency (%) per time (minutes)” value [5]?
The value was 57.1%.

What about the “Repellent efficiency (%) per time (hours)” value (15% (0.375 mg/cm^3), 1 hour) of the same compound?
The value was 100%.

What about the “Repellent efficiency (%) per time (hours)” value (15% (0.375 mg/cm^3), 2 hours) of the same compound?
The value was 75%.

And the “Repellent efficiency (%) per time (hours)” value (15% (0.375 mg/cm^3), 3 hours)?
The value was 75%.

What about the “Repellent efficiency (%) per time (hours)” value (15% (0.375 mg/cm^3), 4 hours) of the same compound?
The value was 75%.

And the “Repellent efficiency (%) per time (hours)” value (15% (0.375 mg/cm^3), 5 hours)?
The value was 50%.

And the “Repellent efficiency (%) per time (hours)” value (15% (0.375 mg/cm^3), 6 hours)?
Its value is 50%.

What about the “Repellent efficiency (%) per time (hours)” value (15% (0.375 mg/cm^3), 7 hours) of the same compound?
Its value is 37.5%.

What about the “Repellent efficiency (%) per time (hours)” value (15% (0.375 mg/cm^3), 8 hours) of the same compound?
Its value is 37.5%.

And the “Repellent efficiency (%) per time (hours)” value (15% (0.375 mg/cm^3), 9 hours)?
The value was 25%.

And the “Repellent efficiency (%) per time (hours)” value (30% (0.75 mg/cm^3), 1 hour)?
Its value is 100%.

And the “Repellent efficiency (%) per time (hours)” value (30% (0.75 mg/cm^3), 2 hours)?
Its value is 87.5%.

And the “Repellent efficiency (%) per time (hours)” value (30% (0.75 mg/cm^3), 3 hours)?
The value was 75%.

And the “Repellent efficiency (%) per time (hours)” value (30% (0.75 mg/cm^3), 4 hours)?
Its value is 75%.

And the “Repellent efficiency (%) per time (hours)” value (30% (0.75 mg/cm^3), 5 hours)?
The value was 75%.

And the “Repellent efficiency (%) per time (hours)” value (30% (0.75 mg/cm^3), 6 hours)?
The value was 62.5%.

What about the “Repellent efficiency (%) per time (hours)” value (30% (0.75 mg/cm^3), 7 hours) of the same compound?
The value was 62.5%.

And the “Repellent efficiency (%) per time (hours)” value (30% (0.75 mg/cm^3), 8 hours)?
The value was 62.5%.

And the “Repellent efficiency (%) per time (hours)” value (30% (0.75 mg/cm^3), 9 hours)?
Its value is 62.5%.

What about the “Repellent efficiency (%) per time (hours)” value (30% (0.75 mg/cm^3), 10 hours) of the same compound?
Its value is 50%.

What about the “Repellent efficiency (%) per time (hours)” value (30% (0.75 mg/cm^3), 11 hours) of the same compound?
The value was 50%.

What about the “Repellent efficiency (%) per time (hours)” value (30% (0.75 mg/cm^3), 12 hours) of the same compound?
Its value is 50%.

And the “Repellent efficiency (%) per time (hours)” value (50% (1.25 mg/cm^3), 1 hour)?
The value was 100%.

What about the “Repellent efficiency (%) per time (hours)” value (50% (1.25 mg/cm^3), 2 hours) of the same compound?
The value was 100%.

What about the “Repellent efficiency (%) per time (hours)” value (50% (1.25 mg/cm^3), 3 hours) of the same compound?
The value was 100%.

And the “Repellent efficiency (%) per time (hours)” value (50% (1.25 mg/cm^3), 4 hours)?
The value was 100%.

What about the “Repellent efficiency (%) per time (hours)” value (50% (1.25 mg/cm^3), 5 hours) of the same compound?
The value was 93.3%.

What about the “Repellent efficiency (%) per time (hours)” value (50% (1.25 mg/cm^3), 6 hours) of the same compound?
The value was 86.7%.

And the “Repellent efficiency (%) per time (hours)” value (50% (1.25 mg/cm^3), 7 hours)?
The value was 86.7%.

And the “Repellent efficiency (%) per time (hours)” value (50% (1.25 mg/cm^3), 8 hours)?
Its value is 86.7%.

What about the “Repellent efficiency (%) per time (hours)” value (50% (1.25 mg/cm^3), 9 hours) of the same compound?
The value was 80%.

What about the “Repellent efficiency (%) per time (hours)” value (50% (1.25 mg/cm^3), 10 hours) of the same compound?
The value was 73.3%.

And the “Repellent efficiency (%) per time (hours)” value (50% (1.25 mg/cm^3), 11 hours)?
Its value is 73.3%.

And the “Repellent efficiency (%) per time (hours)” value (50% (1.25 mg/cm^3), 12 hours)?
The value was 73.3%.

And the “repellency (in words)” value (at the level of 0.0125 mg/cm^3)?
Its value is “did not represent any repellency”.

What about the “time for which repellent efficiency of 100% was shown” value (at the level of 0.05 mg/cm^3) of the same compound?
The value was 30 min.

What about the “time for which repellent efficiency of 100% was shown” value (at the level of 0.25 mg/cm^3) of the same compound?
The value was 150 min.

What about the “Effective repellency duration (minute) (mean ± standard deviation)” value (concentration 0.5% (0.0125 mg/cm^3), time until arm bitten by two cumulative mosquitoes) of the same compound?
Its value is 0 ± 0 min.

What about the “Effective repellency duration (minute) (mean ± standard deviation)” value [6] of the same compound?
The value was 60 ± 0 min.

And the “Effective repellency duration (minute) (mean ± standard deviation)” value [7]?
The value was 240 ± 0 min.

What about the “Effective repellency duration (minute) (mean ± standard deviation)” value (concentration 10% (0.25 mg/cm^3), time until two cumulative bites, maximum measurement time 240 minutes, listed as citronellic acid) of the same compound?
The value was 240 min.

What about the “Effective repellency duration (hour) (mean ± standard deviation)” value (concentration 15% (0.375 mg/cm^3)) of the same compound?
The value was 5.7 ± 2.03 h.

And the “Effective repellency duration (hour) (mean ± standard deviation)” value (concentration 30% (0.75 mg/cm^3))?
The value was 9.3 ± 1.76 h.

What about the “Effective repellency duration (hour) (mean ± standard deviation)” value (concentration 30% (0.75 mg/cm^3), listed as citronellic acid) of the same compound?
The value was 9.3 h.

And the “Effective repellency duration (hour) (mean ± standard deviation)” value (concentration 50% (1.25 mg/cm^3))?
The value was 9.3 ± 1.76 h.

What about the “Effective repellency duration (hour) (mean ± standard deviation)” value (concentration 50% (1.25 mg/cm^3), listed as citronellic acid) of the same compound?
The value was 9.3 h.

What about the repellent efficiency (for 8 hours at the level of 1.25 mg/cm^3) of the same compound?
The repellent efficiency was roughly 90%.

What does the source list for `CCN(CC)C(=O)c1cccc(C)c1` [DEET, N,N-diethyl-m-toluamide, reference compound]?
Repellent efficiency (%) per time (minutes) (2% (0.05 mg/cm^3), 30 minutes): 100%; Repellent efficiency (%) per time (minutes) (2% (0.05 mg/cm^3), 60 minutes): 0%; Repellent efficiency (%) per time (minutes) (2% (0.05 mg/cm^3), 90 minutes): 0%; Repellent efficiency (%) per time (minutes) (2% (0.05 mg/cm^3), 120 minutes): 0%; Repellent efficiency (%) per time (minutes) (2% (0.05 mg/cm^3), 150 minutes): 0%; Repellent efficiency (%) per time (minutes) (2% (0.05 mg/cm^3), 180 minutes): 0%; Repellent efficiency (%) per time (minutes) (2% (0.05 mg/cm^3), 210 minutes): 0%; Repellent efficiency (%) per time (minutes) (2% (0.05 mg/cm^3), 240 minutes): 0%; Repellent efficiency (%) per time (minutes) (10% (0.25 mg/cm^3), 30 minutes): 100%; Repellent efficiency (%) per time (minutes) (10% (0.25 mg/cm^3), 60 minutes): 100%; Repellent efficiency (%) per time (minutes) (10% (0.25 mg/cm^3), 90 minutes): 100%; Repellent efficiency (%) per time (minutes) [1]: 100%; Repellent efficiency (%) per time (minutes) [2]: 87.5%; Repellent efficiency (%) per time (minutes) [3]: 81.3%; Repellent efficiency (%) per time (minutes) [4]: 78.1%; Repellent efficiency (%) per time (minutes) [5]: 71.9%; time for which repellent efficiency of 100% was shown (at the level of 0.25 mg/cm^3): 120 min; Effective repellency duration (minute) (mean ± standard deviation) [6]: 70 min and 70 ± 10.0 min; Effective repellency duration (minute) (mean ± standard deviation) [7]: 218 min and 218 ± 10.8 min
